Laboratory results published in patent US4634783A, “Novel amidine compound” (Torii & Co. Ltd., priority 1983, dated 1987).
pIC50: −log10 of the molar value. Read-outs that look alike come from different tables or passages of the source.

Tests used:
C1s = molecular target: T1, C1s (Homo sapiens, UniProt P09871); assay: anti-C1 esterase (C1s) activity (hydrolysis of ATEE); type: biochemical; details: for pIC50: ATEE hydrolysis, read-out: ID50 C1s; for inhibition at 10 µM: at 1×10^-5 M, figure in parentheses, read-out: percent inhibition C1s
T1 sequence (P09871 438-688 limits assumed): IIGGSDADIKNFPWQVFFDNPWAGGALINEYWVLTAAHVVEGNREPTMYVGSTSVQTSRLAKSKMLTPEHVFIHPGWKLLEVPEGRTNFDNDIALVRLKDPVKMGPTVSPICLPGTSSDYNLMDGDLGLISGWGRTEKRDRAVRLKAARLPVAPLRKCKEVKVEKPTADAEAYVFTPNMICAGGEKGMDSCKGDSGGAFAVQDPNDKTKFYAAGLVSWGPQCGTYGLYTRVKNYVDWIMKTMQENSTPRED
T1 sequence (P09871 16-437 limits assumed): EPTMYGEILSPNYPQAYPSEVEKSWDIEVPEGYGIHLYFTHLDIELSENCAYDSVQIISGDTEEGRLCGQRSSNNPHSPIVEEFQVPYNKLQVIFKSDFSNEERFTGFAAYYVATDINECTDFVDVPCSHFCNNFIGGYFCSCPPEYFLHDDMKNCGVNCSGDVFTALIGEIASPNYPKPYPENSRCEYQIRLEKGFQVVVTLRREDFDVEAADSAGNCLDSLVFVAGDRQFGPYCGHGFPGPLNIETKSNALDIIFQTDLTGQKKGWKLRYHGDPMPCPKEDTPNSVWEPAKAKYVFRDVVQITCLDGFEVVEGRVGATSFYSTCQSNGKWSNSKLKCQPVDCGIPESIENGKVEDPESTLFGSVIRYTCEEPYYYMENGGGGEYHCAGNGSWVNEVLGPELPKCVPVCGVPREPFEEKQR
Method: (§1) The anti-C1 esterase (C1r, C1s) activity was determined according to the method of Okamura et al. [K. Okamura, M. Muramatsu and B. Fujii, Biochem. Biophys. Acta, 295, 252-257 (1973)]. The inhibition of complement mediated hemolysis was determined according to the method of Baker et al. [B. R. Baker and E. H. Erickson, J. Med. Chem., 12, 408-414 (1969)]. The figures in Table 2 have the following meanings:
C1s: Molar concentration of the test compound which inhibits 50% of the ability of C1s to hydrolyse ATEE (acetyltyrosin ethyl ester) (ID50).

C1r = molecular target: T2, C1r (Homo sapiens, UniProt P00736); assay: anti-C1 esterase (C1r) activity (hydrolysis of AAME); type: biochemical; details: for pIC50: AAME hydrolysis, read-out: ID50 C1r; for inhibition at 10 µM: at 1×10^-5 M, figure in parentheses, read-out: percent inhibition C1r
T2 sequence (P00736 464-705 limits assumed): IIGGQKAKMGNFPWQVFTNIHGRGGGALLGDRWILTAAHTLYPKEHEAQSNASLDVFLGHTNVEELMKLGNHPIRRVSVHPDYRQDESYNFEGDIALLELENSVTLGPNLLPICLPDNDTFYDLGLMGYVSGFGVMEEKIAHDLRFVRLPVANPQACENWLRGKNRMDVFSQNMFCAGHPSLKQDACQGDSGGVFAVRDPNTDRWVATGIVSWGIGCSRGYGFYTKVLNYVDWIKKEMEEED
T2 sequence (P00736 18-463 limits assumed): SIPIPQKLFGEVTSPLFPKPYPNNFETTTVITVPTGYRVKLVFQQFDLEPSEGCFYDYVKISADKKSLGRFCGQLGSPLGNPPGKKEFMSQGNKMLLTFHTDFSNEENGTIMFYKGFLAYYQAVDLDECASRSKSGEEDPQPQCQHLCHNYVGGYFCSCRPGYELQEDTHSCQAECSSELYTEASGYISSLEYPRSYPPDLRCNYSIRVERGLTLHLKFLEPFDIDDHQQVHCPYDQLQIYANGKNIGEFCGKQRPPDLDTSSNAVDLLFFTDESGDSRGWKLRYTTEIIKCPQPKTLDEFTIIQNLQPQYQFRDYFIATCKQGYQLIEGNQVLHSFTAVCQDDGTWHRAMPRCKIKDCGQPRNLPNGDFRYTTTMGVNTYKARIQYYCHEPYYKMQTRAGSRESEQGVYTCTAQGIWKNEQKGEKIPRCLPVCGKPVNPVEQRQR
Method: as §1
C1r: Molar concentration of the test compound which inhibits 50% of the ability of C1r to hydrolyse AAME (acetylarginin methyl ester) (ID50).

Thrombin = Thrombin (Homo sapiens, UniProt P00734); assay: biochemical; details: for pIC50: read-out: ID50 Thrombin; for inhibition at 10 µM: at 1×10^-5 M, figure in parentheses, read-out: percentage inhibition Thrombin
Kallikrein = assay: anti-kallikrein activity (hydrolysis of TAME); type: biochemical; details: for pIC50: TAME hydrolysis, read-out: ID50 Kallikrein; for percentage inhibition Kallikrein: at 1×10^-5 M, figure in parentheses
Method: (§2) The anti-trypsin, anti-plasmin, anti-kallikrein and anti-thrombin activities were determined according to the method of Muramatsu et al. [M. Muramatsu, T. Onishi, S. Makino, Y. Hayashi and S. Fujii, J. of Biochem., 58, 214 (1965)]. […] The compound No. corresponds to the compound number shown in Examples.

Plasmin = Plasmin (Homo sapiens, UniProt P00747); assay: anti-plasmin activity (hydrolysis of TAME); type: biochemical; details: for pIC50: TAME hydrolysis, read-out: ID50 Plasmin; for inhibition at 10 µM: at 1×10^-5 M, figure in parentheses, read-out: percentage inhibition Plasmin
Sequence of Plasmin (P00747 581-810 limits assumed, species assumed): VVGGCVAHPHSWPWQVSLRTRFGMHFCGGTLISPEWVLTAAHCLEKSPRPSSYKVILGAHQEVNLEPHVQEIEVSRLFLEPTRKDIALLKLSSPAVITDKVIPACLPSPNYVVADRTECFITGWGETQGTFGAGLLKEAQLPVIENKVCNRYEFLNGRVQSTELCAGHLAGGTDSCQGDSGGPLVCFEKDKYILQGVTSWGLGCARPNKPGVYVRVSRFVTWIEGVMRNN
Sequence of Plasmin (P00747 97-580 limits assumed, species assumed): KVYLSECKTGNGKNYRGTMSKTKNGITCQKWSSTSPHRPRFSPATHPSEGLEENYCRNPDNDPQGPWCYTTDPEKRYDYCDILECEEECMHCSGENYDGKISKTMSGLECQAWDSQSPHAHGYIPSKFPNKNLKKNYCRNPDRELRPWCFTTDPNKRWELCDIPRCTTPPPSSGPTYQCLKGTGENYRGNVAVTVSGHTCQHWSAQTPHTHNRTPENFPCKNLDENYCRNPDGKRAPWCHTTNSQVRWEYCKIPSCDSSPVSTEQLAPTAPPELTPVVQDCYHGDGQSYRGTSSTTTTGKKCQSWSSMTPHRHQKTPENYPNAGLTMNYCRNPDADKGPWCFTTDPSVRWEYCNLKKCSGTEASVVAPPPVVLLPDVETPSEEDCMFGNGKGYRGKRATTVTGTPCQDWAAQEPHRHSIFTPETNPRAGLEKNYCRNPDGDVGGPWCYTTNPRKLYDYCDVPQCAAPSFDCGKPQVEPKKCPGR
Method: as §2

[1] = test system: complement mediated hemolysis; assay: inhibition of complement mediated hemolysis; type: cell-based
Method: The complement mediated hemolysis is widely used as a means to determine the titration of complement. The principle of this method is based on the fact that hemolysis is caused by the activation of complement, when the latter is added to a complex (immune complex) of erythrocytes and the antibody thereof. The degree of hemolysis varies in proportion to the amount of complement added. Therefore, when a known amount of complement admixed with a C1 esterase inhibitor is used, the hemolysis must be suppressed in proportion to the inhibitory activity.
as §1
Inhibition of complement mediated hemolysis (%): The inhibitory activity is shown in terms of percent inhibition of the compound at varied concentrations: […]

Trypsin = molecular target: T3, Trypsin (Bos taurus, UniProt P00760); assay: anti-trypsin activity (hydrolysis of TAME); type: biochemical; details: read-out: ID50 Trypsin
T3 sequence (P00760 24-246): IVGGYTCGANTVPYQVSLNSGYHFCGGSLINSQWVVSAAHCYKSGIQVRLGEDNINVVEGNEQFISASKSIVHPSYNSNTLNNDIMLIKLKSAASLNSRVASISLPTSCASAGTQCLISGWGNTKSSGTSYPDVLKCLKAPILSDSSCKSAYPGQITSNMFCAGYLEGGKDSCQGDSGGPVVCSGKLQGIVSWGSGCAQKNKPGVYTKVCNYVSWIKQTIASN
Method: as §2

Row | Compound | pIC50 (C1s) | pIC50 (C1r) | pIC50 (Thrombin; TAME hydrolysis) | pIC50 (Kallikrein) | pIC50 (Plasmin) | Inhibition of complement mediated hemolysis ([1]; 1 × 10^-4) [%] | Inhibition of complement mediated hemolysis ([1]; 1 × 10^-5) [%] | Inhibition of complement mediated hemolysis ([1]; 1 × 10^-6) [%] | Inhibition of complement mediated hemolysis ([1]; 1 × 10^-7) | pIC50 (Trypsin) | percentage inhibition Kallikrein (Kallikrein) | inhibition at 10 µM (Thrombin) [%] | inhibition at 10 µM (C1r) [%] | inhibition at 10 µM (Plasmin) [%] | inhibition at 10 µM (C1s) [%] | pIC50 (Thrombin)
1 | N=C(N)Nc1ccc(CCc2ccc(C(=O)Oc3ccc4cc(C(=N)N)ccc4c3)o2)cc1 [compound 2, 6-amidino-2-naphthyl 5-(p-guanidinophenylethyl)-furan-2-carboxylate] | 6.40 | 6.70 | 6.30 | 6.52 | 6.40 | 100 | 100 | 97 | 89% | 6.70 | – | – | – | – | – | –
2 | N=C(N)c1ccc2cc(OC(=O)c3ccco3)ccc2c1 [compound 3] | 5.40 | 6.30 | 6.40 | – | 6.00 | 100 | 100 | 100 | 100% | 6.40 | NE (the percentage inhibition is less than 10%) | – | – | – | – | –
3 | N=C(N)c1ccc2cc(OC(=O)c3ccoc3)ccc2c1 [compound 4] | 6.52 | 6.22 | 6.15 | – | 6.00 | 100 | 65 | 30 | NE (the percentage inhibition is less than 10%) | 5.70 | 43% | – | – | – | – | –
4 | N=C(N)c1ccc2cc(OC(=O)c3ccc(COCc4ccccc4)o3)ccc2c1 [compound 7] | 5.40 | 6.52 | 6.40 | 5.70 | 5.52 | 100 | 98 | 96 | 98% | 6.30 | – | – | – | – | – | –
5 | N=C(N)c1ccc2cc(OC(=O)c3ccc(CO)o3)ccc2c1 [compound 8] | 5.40 | – | 6.22 | 5.40 | 5.70 | 100 | 100 | 97 | 92% | 6.40 | – | – | – | – | – | –
6 | CC(=O)OCc1ccc(C(=O)Oc2ccc3cc(C(=N)N)ccc3c2)o1 [compound 9] | 5.40 | 6.52 | 6.52 | 5.70 | 6.05 | 100 | 100 | 96 | 77% | 6.30 | – | – | – | – | – | –
7 | CSCc1ccc(C(=O)Oc2ccc3cc(C(=N)N)ccc3c2)o1 [compound 11] | 6.05 | 6.70 | 6.52 | 6.70 | 6.30 | 100 | 100 | 99 | 88% | 6.70 | – | – | – | – | – | –
8 | COc1ccc2[nH]c(C(=O)Oc3ccc4cc(C(=N)N)ccc4c3)cc2c1 [compound 33] | 5.70 | 5.70 | – | 5.00 | 5.70 | – | – | – | – | 6.70 | – | 40 | – | – | – | –
9 | COc1ccc2c(c1)c(CC(=O)Oc1ccc3cc(C(=N)N)ccc3c1)c(C)n2C(=O)c1ccc(Cl)cc1 [compound 35] | 6.10 | 6.40 | 7.05 | 5.00 | 7.00 | – | – | – | – | 9.00 | – | – | – | – | – | –
10 | N=C(N)c1ccc2cc(OC(=O)C=Cc3c[nH]c4ccccc34)ccc2c1 [compound 38] | 6.22 | – | – | – | 6.10 | – | – | – | – | 5.05 | 17% | 11 | 42 | – | – | –
11 | N=C(N)c1ccc2cc(OC(=O)c3ccc(Cn4ccnc4)cc3)ccc2c1 [compound 42] | – | – | – | 5.30 | 5.70 | – | – | – | – | 5.70 | – | 13 | – | – | – | –
12 | N=C(N)c1ccc2cc(OC(=O)c3ccc4[nH]cnc4c3)ccc2c1 [compound 43] | 6.30 | 6.52 | – | – | – | – | – | – | – | 7.00 | 41% | 46 | – | 31 | – | –
13 | N=C(N)c1ccc2cc(OC(=O)C=Cc3cccnc3)ccc2c1 [compound 50] | – | 5.30 | – | – | 5.40 | – | – | – | – | 5.22 | NE (the percentage inhibition is less than 10%) | 14 | – | – | 18 | –
14 | N=C(N)c1ccc2cc(OC(=O)c3ccc4ccccc4n3)ccc2c1 [compound 52] | – | – | – | – | – | 100 | 97 | 99 | 97% | – | – | – | 29 | – | < 10 | –
15 | N=C(N)c1ccc2cc(OC(=O)C3CCN(C(=O)OCc4ccccc4)CC3)ccc2c1 [compound 55] | 6.40 | 5.52 | – | 5.70 | 5.52 | – | – | – | – | 7.22 | – | 41 | – | – | – | –
16 | CN1c2ccccc2Sc2ccc(CC(=O)Oc3ccc4cc(C(=N)N)ccc4c3)cc21 [compound 61] | – | 5.70 | – | – | – | – | – | – | – | 5.52 | 17% | – | – | 31 | 16 | 5.52
17 | N=C(N)c1ccc2cc(OC(=O)C3CCNCC3)ccc2c1 [compound 64] | 5.15 | – | – | – | – | – | – | – | – | – | – | – | 45 | – | – | –
